{"source": "patent US20260077055A1", "about": "“COMPOSITIONS OF POLYPLEXES AND SAPONINS” (SAPREME TECHNOLOGIES B.V., priority 2022, published 2026)", "tested_on": "HEK293FT cells", "assay": "pEGFP-N3 polyplex transfection of HEK293FT cells, live cell imaging", "assay_type": "cell-based", "description": "Spectrophotometry: Concentrations were determined using either a Thermo Nanodrop 2000 spectrometer or Perkin Elmer Lambda 365 Spectrophotometer. DLS measurements: DLS measurements were performed on a Malvern Nano ZS (Malvern Instruments, U.K.), operating at 633 nm with a 173° scattering angle, at 25 or 37° C. DLS mean diameters were obtained from the intensity particle size distribution provided by Malvern Zetasizer Software. DLS histograms were obtained from the intensity particle size distributions. Zeta-potential: The zeta-potential values of the polyplexes were obtained by laser doppler anemometry (LDA), measuring the mean electrophoretic mobility (Malvern Zetasizer Nano ZS, Malvern Instruments, U.K.). Measurements were performed in 10 mM HEPES pH 7.1, 150 mM NaCl. TEM measurements: TEM measurements were performed on a JEOL JEM-1011 operated at 100 kV electron microscope, equipped with a camera S5 MegaView G2. A drop of a solution of polyplexes (0.1 mg/mL) was settled on a PELCO® TEM carbon type-B film copper grid and allowed to dry at room temperature for 1 h. Infrared Spectroscopy: FT-IR spectra were recorded on a Bruker Vertex 70v, equipped with a RockSolid interferometer, after preparing the samples (1-2 mg) as KBr pellets. Spectra were processed using OPUS 7.8 software (Bruker). NMR Spectroscopy: 1H NMR spectra were recorded on a 11.7 T Bruker DRX-500 spectrometer. Chemical shifts are reported in ppm (o units) downfield from the HOD residual solvent peak (CD3OD). Experiments were recorded acquiring 64-512 scans, with a pre-scan delay (d1) of 12 s, and an acquisition time (aq) of 4 s at 300 K. 13C NMR spectrum was recorder on a 9.39 T Varian Innova 400 spectrometer. MestReNova 14.2 software (Mestrelab Research) was used for spectra processing. Cell culture conditions and treatments: HEK293FT, A431, A2058, Neuro2A, Hepa1-6 and MDA-MB 468 were maintained in 10% FBS-supplemented DMEM medium (PAN-Biotech GmbH, or Lonza Group, Basel, Switzerland)+Pen/Strep at 37° C. with 5% CO2. […]"}
{"smiles": "CC(=O)OC1C(C)OC(OC2C(C)OC(OC(=O)[C@]34CCC(C)(C)CC3C3=CCC5[C@@]6(C)CC[C@H](OC7OC(C(=O)O)C(O)C(OC8OCC(O)C(O)C8O)C7OC7OC(CO)C(O)C(O)C7O)[C@@](C)(/C=N/NC(=O)CCCCCN7C(=O)C=CC7=O)C6CC[C@@]5(C)[C@]3(C)C[C@H]4O)C(OC3OC(C)C(OC4OCC(O)C(OC5OC(CO)C(O)C(O)C5O)C4O)C(O)C3O)C2O)C(O)C1OC1OCC(O)C(O)C1O", "note": "(stereo partly drawn) [SO1861-EMCH]", "values": [{"measurement": "pEGFP-N3 transfection (GFP expression)", "setting": "40 pM or 120 pM pEGFP-N3, N/P 8, SO1861-EMCH = 4000 nM co-administered with PAMAM G5-(PEG N3)3.5 polyplexes", "result": "nearly all cells were transfected"}, {"measurement": "toxicity (cell confluency)", "setting": "40 pM or 120 pM pEGFP-N3 polyplexes, N/P 8, SO1861-EMCH = 4000 nM co-administered with PAMAM G5-(PEG N3)3.5 polyplexes", "result": "strong toxicity was observed"}, {"measurement": "toxicity of SO1861-EMCH alone", "setting": "4000 nM, without polyplex (data not shown)", "result": "not toxic"}]}
